Consider three compounds from patent US7638284B2, “Immunoglobulin A inducing protein and uses therefor” (The Curators of the University of Missouri, priority 2000, dated 2009).

Assay [1] concerns IGIP mRNA. Briefly: Taqman RT-PCR relative quantification of steady state IGIP mRNA in PMA stimulated cell subsets. The class given is cell-based, bovine. Conditions: 5 ng/ml PMA for 18 hours. The source says:
Selective IgA deficiency (IgAD) is the most common primary immunodeficiency. […] To determine if abnormalities of IGIP production, function or cellular responsiveness to IGIP are altered in all or a subpopulation of patients with IgAD, a sampling approach is used to screen as many clinical and immunological types of adult subjects as possible for IGIP abnormalities. The relative contribution of PBMC-derived populations can be ranked based on quantitative PCR assessment of resting versus phorbol ester stimulated bovine cells; DC>B cells>T cells>monocytes (see Table VI below).
(Quantitative PCR measures a nucleic acid by following its amplification.)

The test system of assay [2] is sIgD+ B cells. Briefly: Bioassay for IGIP activity on naive human B cells (CD40L, IL-2, with or without IL-10; ELISA day 14). The class given is cell-based. As to the method: Total PBMC's were isolated from normal healthy donors via gradient centrifugation and labeled with biotinylated mouse monoclonal antibody (mAB) to human IgD. Pure sIgD^+ B cells were then isolated with Streptavidin-coated Microbeads using an AutoMACS magnetic cell sorter.
Enriched sIgD^+ B cells were cultured in RPM1 1640 (supplemented with 10% FBS, 2 mM L-glutamine, 100 U/ml penicillin and 100 μg/ml streptomycin) at 0.8-1.0×10^5 cells/well in 96-well plates. B cells were co-cultured at a 4:1 ratio with mitomycin C treated DAP3 cells stably transfected with CD40L and 50 ng/ml IL-2, with or without 50 ng/ml IL-10. Cell cultures were then stimulated with 0.1, 1.0 or 10 ng/ml IGIP, 1.0 ng/ml TGF-β, or left unstimulated. Culture supernatants were assayed for secreted immunoglobulins (IgM, IgG, and IgA) by ELISA on day 14.
(In general: ELISA stands for enzyme-linked immunosorbent assay.)

The subject of assay [3] is peripheral blood B cells. In words: Bovine B cell bioassay (CD40L-DAP3 cells + IL-2, 7 days) with ELISA for secreted IgA, IgM, IgG. The class given is cell-based.
Procedure: Peripheral blood mononuclear cells (PBMCs) were isolated from the peripheral blood of 6-12 month old Holstein or Angus heifers or steers by incubating 30 ml of red cell lysis buffer (0.15 NH4Cl, 10 mM KHCO3, 1 mM EDTA, H2O) with 20 ml of blood for 20 minutes at room temperature. During this incubation, carbonyl iron (0.1 μg/ml) was added to the blood mixture for 20 minutes and then exposed to a magnetic field for 2 minutes to remove phagocytic cells. Following incubation, the cells were washed 3 times with Hank's buffered salt solution (HBSS). B lymphocytes were enriched by panning in the presence of 3% bovine serum albumin (BSA, Fraction V, Sigma, St. Louis, Mo.) in HBSS as described in Severson et al. (1987). Briefly, PBMCs were resuspended at a concentration of 1×10^7 cells/ml in panning solution (3% BSA, 10 mM Tris, 50 μg/ml gentamicin, 0.0025 mM CaCl2, and 0.002 mM MgCl2 in HBSS) and allowed to adhere to plastic tissue culture plates for 1 hour. Non-adherent cells were removed by washing twice with HBSS and adherent cells (enriched B cells) were harvested by vigorous pipetting. 1×10^5 B cells and 2×10^4 mitomycin C treated CD40L-DAP3 transfected cells were cultured for 7 days in 96-well plates in 2001 μl final volume complete medium (RPMI 1640) and 10% immunoglobulin free normal horse serum with 1 ng/ml recombinant huIL-2 (Peppro Tech Inc., Rocky Hill, N.J.) and 10% culture supernatant from cells transfected with library plasmids. Where indicated, pre-committed B cells and residual T cells were depleted by incubating panned B cells for 30 minutes on ice with 30 μl each of mouse anti-bovine IGA (Serotec, Raleigh, N.C.), mouse anti-bovine IgG1 (Serotec), mouse anti-bovine IgG2 (Serotec), and MM1A (anti-CD3 antibody, VMRD, Pullman, Wash.). The cells were washed 3 times with HBSS and sheep anti-mouse IgG Dynabeads (Dynal, Oslow, Norway) were added according to the manufacturer's instructions. The B cells were then placed in a magnetic field and the non-adherent cells removed. These cells were next incubated on ice for 30 minutes with biotinylated goat anti-bovine IgM (Kirkegard and Perry (KPL), Gaithersburg, Md.), washed 3 times and streptavidin beads (Dynal) were added according to the manufacturer's instructions. The cells were placed on a magnetic field and the adherent cells (IgM^+ B cells) were harvested. All bioassays were performed in triplicate in 96-well Corning flat bottom plates.
Other reagents used in these studies were goat anti-bovine IgM (5 μg/ml, KPL) and porcine TGF-β (1 ng/ml, R & D Systems, Minneapolis, Minn.) that had been acid-activated according to the manufacturer's instructions. […]
[4] abbreviates: in the presence of IL-10, CD40L + IL-2, IGIP 0.1 to 10 ng/ml, TGF-β 1 ng/ml, 14 days.

“Also recorded” adds a separate entry of the source.

Turning to `CCCCCCCCCCCCCC(=O)O[C@@H]1[C@@H](C)[C@@]2(O)[C@@H](C=C(CO)C[C@]3(O)C(=O)C(C)=C[C@@H]23)[C@@H]2C(C)(C)[C@]12OC(C)=O` [PMA, phorbol myristic acetate], the “IGIP mRNA fold increase, stimulated vs unstimulated” value in assay [1] (CD3+ cells) is listed as 2.03 fold; in assay [1] (CD14+ cells), 0.64 fold; in assay [1] (CD21+ cells), 7.6 fold; in assay [1] (DC) it was 7205 fold. For the same compound, the “IGIP mRNA, relative quantification, stimulated cells” value is 4.79 × 10^−5 in assay [1] (CD3+ cells), 1.00 × 10^−5 in assay [1] (CD14+ cells), 3.65 × 10^−4 in assay [1] (CD21+ cells) and 0.263 in assay [1] (DC).
In the case of “IGIP: human homolog of IGIP, 0.1 to 10 ng/ml on naive human IgD+ B cells (Example III) (MKKRSVSGCNITIFAVMFSHLSAGKSPCGNQANVLCISRLEFVQYQS)”, the “IgA production by naive IgD+ B cells (in words)” value in assay [2] (IL-10, CD40L dependent, B-cell-receptor independent) is on record as “enhanced IgA production”. Also, the “number of IgA producing cells compared with TGF-β” value in assay [2] (in the presence of IL-10) is on record as “greater number of IgA producing cells”. Further, in assay [2] (setting [4]), the “IgA production, level relative to TGF-β” value is 4-6 fold; the “IgG production, level relative to TGF-β” value is 4-6 fold; the “IgM production, level relative to TGF-β” value is listed as 4-6 fold.
As to “TGF-β: porcine TGF-β (1 ng/ml, R & D Systems), acid-activated”, the “effect on IgA production (in words)” value in assay [3] (B cells stimulated via CD40L + IL-2 (CD40 alone)) is “less IgA production; also recorded: decreased IgA production”; in assay [3] (B cells stimulated via CD40 and anti-IgM (BCR)) it was “induced IgA production”. Moreover, the “IgA production over that of B cells stimulated via CD40L + anti-IgM + IL-2 alone” value in assay [3] (Table IV experiment 2, dual stimulation CD40 and BCR) worked out at 10 fold.
